From publication PMC5597121, “The human bitter taste receptor T2R38 is broadly tuned for bacterial compounds” (PLoS ONE, 2017)
Values joined by “and” are separate entries in the source; they are usually repeats but may differ in a detail not shown here. Identical values can stand only once. “Also recorded” adds a separate entry of the source. Like-named read-outs stand apart in the source and are kept apart here. Blank lines part the entries; values can stand above or below the compound they belong to.

Assays:
[1] = system: mock transfected cells (empty vector); assay: Single cell calcium imaging, control: mock transfected (empty vector) Peakrapid cells; assay type: cell-based, human
Method: (§1) The Peakrapid cell line expressing stably a chimeric Gα16gustducin44 G protein [21] was used. 40 000 cells were seeded in each well of a black/clear poly-D-lysine cellware pre-coated 96-well plate (Biocoat®, Becton-Dickinson, Erembodegem, Belgium) and transiently transfected with 50 ng of plasmid DNA containing the receptor sequence or not (empty vector) and with 50 ng of chaperone protein RTP4 per well. Forty hours after transfection, cells were incubated with the calcium-sensitive dye Fluo4 (Life Technologies, Oregon, USA) solubilized at 10 μg/ml in a buffer containing EMEM (150 mM NaCl, 5 mM KCl, 2 mM CaCl2, 1.2 mM MgCl2, 10 mM glucose), 10 mM HEPES, 0.01% (v/v) Pluronic F127, 0.1% (w/v) bovine serum albumin. After 1 h incubation at 37°C, cells were rinsed twice with the same buffer without Fluo4 and left in 50 μl buffer (prior ligand injection). Measurement were performed on a platform based on a motorized Axiobserver Z1 fluorescence microscope piloted by a Axiovision software (Zeiss, Jena, Germany) as described previously. For each selected well, images were taken 1 per second, during 30 seconds. 50 μl of the buffer containing the ligand twice concentrated was injected on the 2nd second of the time lapse record.
(§2) After time lapse record, the number of responding cells in each injected well was determined using ImageJ 1.34 (Rasband, W.S., ImageJ, National Institutes of Health, Bethesda, Maryland, USA, http://rsb.info.nih.gov/ij/1997-2004), and expressed as the percentage of the surface of a microscope field covered by activated cells with respect to the total surface of the field covered by confluent cells. Automated determination of the surface occupied by responding cells is easier to perform than a cell counting. The resulting percentage of positive surface provided a convenient estimation of the percentage of responding cells, as observed by comparing the percentage of positive surface and percentage of responsive cells determined by direct counting, in the same experiment. In agreement with the literature, the percentage of responding cells was proportional to the agonist concentration. During experiment in each plate, at least 2 wells were tested with phenylthiocarbamide (PTC) at 0.1 mM, which is one of the best characterized agonist of T2R38 in the literature. The activation of T2R38 by PTC allows normalization of the result of other tested molecules. The results were thus expressed as the percentage of PTC activation. In scaling calcium imaging assays using this latter receptor, concentration-responses curves were performed and data were fitted to a four parameter logistic equation: y=min+ (max− min)/1+10 ^(logEC50−x)nH . Min and max are the minimum and the maximum values of the percentage of cell-activated surface respectively, y is the percentage of cell-activated surface at the x concentration and nH is the Hill coefficient.

[2] = target: T1, T2R38 (Homo sapiens, UniProt P59533, A49P/I296V); assay: Single cell calcium imaging, Peakrapid cells (Gα16gustducin44) transiently transfected with T2R38; assay type: cell-based; conditions: for average calcium response, % of the one induced by 0.1 mM of PTC: dissolved in DMSO 1.5% (209 mM); for specific activation of T2R38: ethanol-solubilized; for response of T2R38: solubilized in the aqueous buffer, 2 mM; for EC50: concentration-response curve, read-out: EC50
T1 construct: leader: first 45 amino acids of rat somatostatin receptor subtype 3 (SSTR3) (N); expressed in transfected cells; host or cells: Peakrapid cells (HEK293 derivative, ATCC CRL-2828) stably expressing Galpha16gustducin44, co-transfected with human RTP4
T1 sequence (P59533 1-333 A49P/I296V): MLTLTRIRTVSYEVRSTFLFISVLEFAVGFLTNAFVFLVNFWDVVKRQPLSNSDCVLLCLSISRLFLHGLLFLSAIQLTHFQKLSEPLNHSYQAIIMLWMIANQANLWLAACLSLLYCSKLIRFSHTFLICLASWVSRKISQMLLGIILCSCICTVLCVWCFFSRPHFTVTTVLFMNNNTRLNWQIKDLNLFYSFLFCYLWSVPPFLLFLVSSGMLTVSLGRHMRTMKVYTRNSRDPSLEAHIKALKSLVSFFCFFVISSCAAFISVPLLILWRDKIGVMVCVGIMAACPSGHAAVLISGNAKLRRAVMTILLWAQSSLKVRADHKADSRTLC
Excerpt: The coding sequences of either the functional (PAV, GenBank accession number AY258597.1) and non-functional (AVI, GenBank accession number AF494231.1) were amplified from human genomic DNA by polymerase chain reaction.
These coding sequences were cloned in a pEFIB backbone vector in translational fusion with the coding sequence of a leader sequence corresponding to the 45 first amino acids of the rat somatostatin receptor subtype 3 [20]. The constructs were verified by sequencing. The coding sequence of RTP4 (Genbank accession number AY562238.1) was amplified from human spleen cDNA and cloned a pCI backbone vector.
The Gα16gustducin44 sequence was generated by swapping the last 132 nucleotides of the G α16 with the corresponding terminal sequence of the Gα-gustducin [21] and was cloned in a pIRES-Puro plasmid. This vector was transfected in the Peakrapid cell line (ATCC reference: CRL-2828™; purchased from LGC Standards SARL, Molsheim, FRANCE), HEK293 cell line derivative, cultured in EMEM culture medium (reference BE12-136F; Lonza, Vervier, BELGIUM) supplemented with 10% of foetal bovine serum (Sigma-Aldrich, Bornem, Belgium) and 1 μg/ml of Puromycin to allow the selection of recombinant cell populations. Cell clones expressing the Gα16gustducin44 were selected and the clone presenting the best functional response of T2R38 to phenylthicarbamide was used for the study (see below).
as §1
as §2, with “In scaling calcium imaging assays using this latter receptor, concentration-responses curves were performed and data were fitted to a four parameter logistic equation: y=min+ (max− min)/1+10 ^(logEC50−x)nH . Min and max are the minimum and the maximum values of the percentage of cell-activated surface respectively, y is the percentage of cell-activated surface at the x concentration and nH is the Hill coefficient.” left out

[3] = 2mM (no organic solvent), listed as HSL-C4
[4] = 2mM in DMSO 1.5%, listed as HSL-C4
[5] = 2mM in EtOH 0,4%, listed as HSL-C4
[6] = 1mM in DMSO 1.5%, listed as HSL-C12
[7] = 1mM in EtOH 2%, listed as HSL-C12

Structure (SMILES): CCCC(=O)N[C@H]1CCOC1=O [C4HSL, N-butyryl-L-homoserine lactone, reference compound]
percentage of surface covered by activated cells [1, 3]: 0.08% and 2.07% and 0.35% and 0.32% and 0.65% and 0.13%
percentage of surface covered by activated cells [1, 4]: 0.56% and 1.82% and 1.06% and 0.36% and 0.33% and 0.98%
percentage of surface covered by activated cells [1, 5]: 0.40% and 0.69% and 0.43% and 0.56% and 1.49% and 0.68%
agonist activity on T2R38 (in words) [2]: are not agonists of the receptor in our hands
percentage of surface covered by activated cells [2, 3]: 0.38% and 0.93% and 0.34% and 0.53% and 0.11% and 0.17%
percentage of surface covered by activated cells [2, 4]: 6.92% and 3.48% and 5.97% and 2.36% and 9.56% and 4.46%
percentage of surface covered by activated cells [2, 5]: 0.27% and 1.95% and 2.21% and 0.24% and 0.29% and 1.29%
average calcium response, % of the one induced by 0.1 mM of PTC [2]: 33%
specific activation of T2R38 [2]: did not trigger a specific activation of T2R38
specific activation of T2R38 ([2]; listed as HSLC4): remained without effect on the receptor
response of T2R38 [2]: did not elicit a response of T2R38
response of T2R38 ([2]; listed as HSLC4): remained without effect on the receptor

percentage of surface covered by activated cells ([2]; 0.1mM in DMSO 0.15%): 0.46% and 1.07% and 1.52% and 0.39%
percentage of surface covered by activated cells ([2]; 0.1mM in DMSO 0.3%): 0.20% and 0.64% and 1.46% and 0.93%
average calcium response, % of the one induced by 0.1 mM of PTC [2]: 42%
specific activation of T2R38 ([2]; listed as HSLC12): remained without effect on the receptor
Structure (SMILES): CCCCCCCCCC(=O)CC(=O)N[C@H]1CCOC1=O [C12HSL, N-3-oxo-dodecanoyl-L-homoserine lactone, reference compound]
percentage of surface covered by activated cells ([1]; 0.1mM in DMSO 0.15%): 0.22% and 0.19%
percentage of surface covered by activated cells ([1]; 0.1mM in DMSO 0.3%): 0.00881% and 0.16%
percentage of surface covered by activated cells [1, 6]: 0.92% and 1.51% and 1.40% and 0.48% and 0.97% and 3.05%
percentage of surface covered by activated cells [1, 7]: 0.58% and 7.03% and 2.23% and 2.90% and 5.38% and 0.28%
agonist activity on T2R38 (in words) [2]: are not agonists of the receptor in our hands
specific activation of the receptor ([2]; 0.1 mM with either 0.3% or 0.15% DMSO in the incubation buffer): did not trigger any specific activation of the receptor; also recorded: did not trigger any specific activation of T2R38
percentage of surface covered by activated cells [2, 6]: 8.51% and 3.40% and 8.12% and 5.47% and 4.84% and 9.74%
percentage of surface covered by activated cells [2, 7]: 2.04% and 1.92% and 1.33% and 4.51% and 5.83% and 3.09%
specific activation of T2R38 [2]: did not trigger a specific activation of T2R38

Structure (SMILES): NC(=S)Nc1ccccc1 [PTC, phenylthiocarbamide, reference compound]
percentage of surface covered by activated cells ([1]; PTC 1e-7 M): 0.29% and 0.31% and 0.20%
percentage of surface covered by activated cells ([1]; PTC 5.31987e-7 M): 0.69% and 0.47%
percentage of surface covered by activated cells ([1]; PTC 7.66061e-7 M): 0.32% and 0.90%
percentage of surface covered by activated cells ([1]; PTC 1e-6 M): 0.45% and 0.40% and 0.59%
percentage of surface covered by activated cells ([1]; PTC 3.16456e-6 M): 0.30% and 0.15% and 0.74%
percentage of surface covered by activated cells ([1]; PTC 1e-5 M): 0.11% and 0.26% and 0.07%
percentage of surface covered by activated cells ([1]; PTC 0.0001 M): 0.06% and 0.11%
response of empty vector transfected cells (S7_fig raw data) ([1]; PTC 0.1 mM, empty vector, experiments 1-5): 0.078% and 0.55% and 0.518% and 0.35% and 0.26%
percentage of surface covered by activated cells ([1]; PTC 0.001 M): 0.59% and 0.12% and 0.20%
percentage of surface covered by activated cells ([2]; PTC 1e-7 M): 0.32% and 0.0439% and 0.30% and 0.38% and 0.0433% and 0.37%
percentage of surface covered by activated cells ([2]; PTC 5.31987e-7 M): 0.29% and 0.21% and 0.40% and 0.74%
percentage of surface covered by activated cells ([2]; PTC 7.66061e-7 M): 0.42% and 0.94% and 0.57%
percentage of surface covered by activated cells ([2]; PTC 1e-6 M): 0.15% and 0.33% and 0.74% and 1.61% and 0.19% and 0.16%
percentage of surface covered by activated cells ([2]; PTC 3.16456e-6 M): 0.91% and 1.80% and 0.81% and 1.93% and 1.12% and 1.19%
percentage of surface covered by activated cells ([2]; PTC 1e-5 M): 9.30% and 8.69% and 5.20% and 5.77% and 8.28% and 3.33%
percentage of surface covered by activated cells ([2]; PTC 0.0001 M): 16.96% and 16.52% and 12.58% and 13.19% and 14.04% and 11.95%
response of T2R38 PAV transfected cells (S7_fig raw data) ([2]; PTC 0.1 mM, T2R38 PAV, experiments 1-5): 30% and 29% and 24% and 17% and 23%
percentage of surface covered by activated cells ([2]; PTC 0.001 M): 16.18% and 8.32% and 10.10% and 7.45% and 11.65% and 8.92%
EC50 ([2]; mean ± SEM of n = 3 experiments): 0.0097 ± 0.0004 mM

Structure (SMILES): CSSC [dimethyldisulfide, dimethyl disulfide]
percentage of surface covered by activated cells ([1]; dimethyldisulfide 0.00251189, log10[ ] -2.6): 0.21% and 0.13% and 0.27% and 1.93% and 1.05% and 0.36% and 1.26%
agonist activity on T2R38 (in words) [2]: able to specifically trigger this receptor
EC50 [2]: 3 mM
surface covered by activated cells (given as fraction) ([2]; dimethyldisulfide 0.000251189, log10[ ] -3.6, experiment 6): 0.0087 and 0.0151
surface covered by activated cells (given as fraction) ([2]; dimethyldisulfide 0.000398107, log10[ ] -3.4, experiment 6): 0.0033 and 0.0066
surface covered by activated cells (given as fraction) ([2]; dimethyldisulfide 0.000630957, log10[ ] -3.2, experiment 6): 0.0100 and 0.0078
surface covered by activated cells (given as fraction) ([2]; dimethyldisulfide 0.001, log10[ ] -3, experiment 6): 0.0079 and 0.0134
surface covered by activated cells (given as fraction) ([2]; dimethyldisulfide 0.00158489, log10[ ] -2.8, experiment 6): 0.0310 and 0.0369
surface covered by activated cells (given as fraction) ([2]; dimethyldisulfide 0.00398107, log10[ ] -2.4, experiment 6): 0.1269
logEC50 ([2]; given in the concentration-response curve): -2.54
Emax (% of positive control) ([2]; percentage of the response elicited by 0.1 mM PTC): 46 % of positive control
